# How the values were obtained:
# [1] = test system: Human bone marrow mononuclear cells; experiment: Megakaryocyte and CD41+CD34- cell differentiation in ex vivo human bone marrow culture in 3D bioreactor; format: cell-based; settings: eltrombopag 8 μg/mL + IL11 vs TPO + IL11; non-irradiated control and irradiated cultures; 14 days
# Protocol: FIGS. 12A-D illustrate the effects of IL-11 only (middle/red bars) versus TPO+IL11 (left/blue bars) versus eltrombopag (8 μg/mL)+IL11 (right/green bars) on promoting megakaryocyte or CD41+CD34− cell differentiation in control and irradiated ex vivo human 3D bone marrow mononuclear cells. Cells were treated with TPO and IL11 (5 ng/mL each) for 6-7 days to induce megakaryocyte differentiation. Culture media was replaced with cultures containing IL-11 only, TPO+IL11, or eltrombopag+IL11 for the groups of control cultures (FIGS. 12A, 12C) and the group of irradiated cultures (FIGS. 12B, 12D). […]
# Human bone marrow mononuclear cells were inoculated into the 6-well bioreactor as described above (3.5×10^6 cells in 0.6 mL). […] Cultures were screened weekly for cell viability (Trypan blue exclusion test) and for megakaryocytes production expressed as number of megakaryocytes per 1000 bone marrow cells on Wright stained cytospin slides.
# Flow cytometry analysis of CD41+CD34− cells (marker for precursor/progenitor of thrombopoiesis) was also performed for megakaryocytes and progenitors as an additional experimental end-point. […] Cells were analyzed on FACS—Calibur Flow Cytometer (Becton-Dickinson, Rockville, Md.). CD41+CD34− cell population was gated as a subpopulation of all living cells analyzed. […]
# [2] = test system: human c-mpl TM (exon 10) KI mice; experiment: Survival of irradiated human c-mpl TM (exon 10) KI mice; format: in vivo, mouse; settings: 7.75 Gy TBI; for survival after TBI: male mice, 12.5, 25 or 50 mg/kg daily gavage 15 days from 24 h after irradiation, vs vehicle
# Protocol: (§1) Male Mpl^hExon10KI (human c-mpl TM knock-in mice) received 7.75 Gy TBI. Twenty-four hours after irradiation, mice were gavaged with either vehicle (0 mg/kg of eltrombopag) or one of the three doses of eltrombopag (12.5 mg/kg, 25 m g/kg, vs. 50 mg/kg daily for 15 days (n=8-10) for each experimental group.
# as §1, with “A pilot radiation study of was performed using human” for “Male Mpl^hExon10KI (human”, “KI mice before completion of backcrossing to >95% C57B1. Male human c-mpl TM (exon 10) KI mice” for “knock-in mice)”
# [3] = test system: TM KI homozygote mutant mice; experiment: Blood cell recovery in irradiated human c-Mpl TM (exon 10) KI mice; format: in vivo, mouse; settings: 6.5 Gy TBI, 25 mg/kg/day oral gavage from 24 h post IR, vs vehicle
# Protocol: TM KI homozygote mutant mice (11 weeks old, male and female) were treated with 6.5 Gy TBI and at 24 hr post IR fed with 25 mg ePag/kg/day or vehicle by oral gavage daily for 28 days or till sacrificed. Mice were sacrificed on the day specified. Whole blood was obtained by heart puncture and CBC was done by Heska HemaTrue Hematology analyzer. Whole blood was also stained by anti CD41 and anti CD61 antibodies. BM was extracted and stained with mCD41 and mCD42d for flow cytometry analysis of […] cells (markers for precursor and progenitors for thrombopoiesis).
# The ratio of platelets to RBCs was measured by flow cytometry after whole blood was stained with anti-CD41 and anti-CD61 antibodies. The count of platelets was calculated by multiplying the ratio with the count of RBCs obtained by Heska HemaTrue Hematology Analyzer. Week 0 is normal mice without IR and gavage.
# TPO receptors = settings: depends on His 499 in the transmembrane portion; cited from earlier work
# Mpl^hmMPL knock-in mice = experiment: Survival of Mpl^hmMPL knock-in mice after lethal total body irradiation; format: in vivo, mouse; settings: 8 Gy TBI, eltrombopag 50 mg/kg gavage daily for 15 days from 24 h after TBI, monitored 30 days
# Protocol: FIG. 3 is a Kaplan-Meier survival curve showing survival of wildtype and Mpl^hmMPL knock-in mice after exposure to a non-therapeutic dose of radiation. Male Mpl^hmMPL knock-in mice received total body irradiation (TBI) of 8 Gy. Twenty-four hours after TBI, mice were gavaged daily with eltrombopag (50 mg/kg) for 15 days. Survival of mice was monitored twice daily for 30 days. Experiments were carried out with 8 homozygous Mpl^hmMPL knock-in mice, 10 heterozygous Mpl^hmMPL knock-in mice, and 10 wild type mice.
# All mice received 8 Gy total body irradiation and were treated with eltrombopag 24 hours after irradiation. […] It is believed that eltrombopag facilitates bone marrow recovery after radiation injury to the hematopoietic system.
# Mpl^hExon10 KI mice = experiment: Eltrombopag treatment of non-irradiated Mpl^hExon10 KI mice: platelet and bone marrow cell populations; format: in vivo, mouse; settings: 25 mg/kg/day gavage 15 days, vs vehicle
# Protocol: Mpl^hExon10 KI mice (9 to 13 weeks old, male and female) were fed with 25 mg eltrombopag (ePag)/kg/day or vehicle by gavage for 15 days. Eltrombopag is a non-peptide mimetic of the TPO receptor. Mice were sacrificed on the 16th day for cell analysis.
# To examine platelet levels, whole blood was obtained by heart puncture and CBC was done by Heska HemaTrue Hematology analyzer. Whole blood was also stained by anti CD41 and anti CD61 antibodies. The ratio of platelets to RBCs was measured by flow cytometry after whole blood was stained with anti-CD41 and anti-CD61 antibodies. The count of platelets was calculated by multiplying the ratio with the count of RBCs obtained by Heska HemaTrue Hematology Analyzer. The data is presented as mean±standard error of the mean.
# To examine bone marrow cell populations, mice were sacrificed on day 16 and bone marrow cells were flushed out of the femur and tibia. RBCs were lysed by ACK buffer. The bone marrow mononuclear cells were stained with anti-CD41-PE and anti-CD42-APC. DAPI was added before flow cytometric analysis to gate away dead cells. The number of mice in each genotype is 5-7. All results are shown as the mean±standard error of the mean.
# In a separate experiment, bone marrow mononuclear cells were stained with anti-lineages-PE (Gr-1, Mac-1, B220, Ter119, CD4 and CD8), anti-Sca-1 FITC, and anti-c-kit-APC. DAPI-pacific blue was added before flow cytometric analysis to eliminate dead cells. To analyze KSL (linage^−, c-kit^+, sca^+) population, live cells (DAPI-) are first gated, followed by gating the linage^− population and selecting c-kit^+/sca-1^+ population within the linage^− population.
smiles,measurement,setting,value
"CC1=NN(c2ccc(C)c(C)c2)C(=O)/C1=N\Nc1cccc(-c2cccc(C(=O)O)c2)c1O [eltrombopag, (Z)-3′-(2-(1-(3,4-dimethylphenyl)-3-methyl-5-oxo-1H-pyrazol-4(5H)-ylidene)hydrazinyl)-2′-hydroxybiphenyl-3-carboxylic acid]",CD41+CD34- cells (precursors/progenitors for thrombopoiesis),[1],performed as well as TPO
same,megakaryocytes (number per 1000 bone marrow cells),[1],performed as well as TPO in promoting megakaryocytes
same,"survival after TBI, dose dependence",[2]; 25 and 50 mg/kg vs 12.5 mg/kg daily for 15 days,higher doses (25 mg/kg and 50 mg/kg) yielded better survival
same,survival after TBI,[2],improves survival
same,survival after TBI,[2]; listed as Eltrombopag,improved the survival of mice
same,red blood cell counts,[3]; 2 weeks post IR,an improvement
same,platelet counts,[3]; 4 and 6 weeks post IR,significant improvement
same,count of bone marrow precursor/progenitor cells for thrombopoiesis,[3]; 4 weeks post IR,significant improvement
same,white blood cell counts,[3]; 6 weeks post IR,significant improvement
same,species-specificity of TPO receptor binding,TPO receptors,binds to the TPO receptors of only humans and chimpanzees
same,"survival after lethal total body irradiation, heterozygous Mpl^hmMPL knock-in mice",Mpl^hmMPL knock-in mice; heterozygous vs wild type,survived longer than the wild type
same,"survival after lethal total body irradiation, homozygous Mpl^hmMPL knock-in mice",Mpl^hmMPL knock-in mice; homozygous vs heterozygous,survived longer than the heterozygous transgenic mice
same,bone marrow Lin-KSL (stem) cells,Mpl^hExon10 KI mice; Mpl^hExon10 KI mice,significantly increased
same,bone marrow CD41+CD42+ cells,"Mpl^hExon10 KI mice; homozygous Mpl^hExon10 KI mice, day 16",significantly increased
same,platelet counts in the peripheral blood,"Mpl^hExon10 KI mice; homozygous Mpl^hExon10 KI mice, day 16, 25 mg/kg/day",significantly increased the platelet counts

# From patent publication US20140047572A1, “THROMBOPOIETIN MIMETICS FOR THE TREATMENT OF RADIATION OR CHEMICAL INDUCED BONE MARROW INJURY” (priority 2012, published 2014)
